For series [1], the target named is T1, human adenosine A2A receptor (Homo sapiens, UniProt P29274).
T1 construct: expressed in transfected cells; host or cells: CHO cells, Semliki Forest virus expression system; washed membrane pellet used
The experiment in a line: [3H]-SCH-58261 binding assay at the human adenosine A2A receptor. To be noted: read-out: pKi value (converted). How it is done:
Human Adenosine A2A Receptor
The human adenosine A2A receptor was recombinantly expressed in chinese hamster ovary (CHO) cells using the semliki forest virus expression system. Cells were harvested, washed twice by centrifugation, homogenised and again washed by centrifugation. The final washed membrane pellet was suspended in a Tris (50 mM) buffer containing 120 mM NaCl, 5 mM KCl, 2 mM CaCl2 and 10 mM MgCl2 (pH 7.4) (buffer A). The [^3H]-SCH-58261 (Dionisotti et al., 1997, Br J Pharmacol 121, 353; 1 nM) binding assay was carried out in 96-well plates in the presence of 2.5 μg of membrane protein, 0.5 mg of Ysi-poly-1-lysine SPA beads and 0.1 U adenosine deaminase in a final volume of 200 μl of buffer A. Non-specific binding was defined using xanthine amine congener (XAC; 2 μM). Compounds were tested at 10 concentrations from 10 μM-0.3 nM. All assays were conducted in duplicate and repeated at least two times. Assay plates were incubated for 1 hour at room temperature before centrifugation and then bound ligand determined using a Packard Topcount scintillation counter. IC50 values were calculated using a non-linear curve fitting program and Ki values calculated using the Cheng-Prussoff equation.

Each structure is given as a SMILES string.

As a reminder, the melting point is the temperature, or range, at which the solid turns liquid.

T1 sequence (P29274 whole entry): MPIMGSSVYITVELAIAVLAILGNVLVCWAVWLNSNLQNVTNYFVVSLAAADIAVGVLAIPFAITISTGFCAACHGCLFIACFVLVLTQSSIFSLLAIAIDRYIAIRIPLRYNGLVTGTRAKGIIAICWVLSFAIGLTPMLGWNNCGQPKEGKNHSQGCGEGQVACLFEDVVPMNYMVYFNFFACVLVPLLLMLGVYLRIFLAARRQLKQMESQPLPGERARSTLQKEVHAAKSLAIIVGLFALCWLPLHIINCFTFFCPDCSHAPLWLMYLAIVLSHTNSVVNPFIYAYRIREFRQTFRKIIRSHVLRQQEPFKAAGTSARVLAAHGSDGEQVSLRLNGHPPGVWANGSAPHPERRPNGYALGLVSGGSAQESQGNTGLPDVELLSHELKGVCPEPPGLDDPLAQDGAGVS

For the compound `COc1ccc(-c2csc(N3CCN(C)CC3)n2)c2sc(NC(=O)c3ccc(F)cc3)nc12` [Example 221, 4-Fluoro-N-{4-methoxy-7-[2-(4-methyl-piperazin-1-yl)-thiazol-4-yl]-benzothiazol-2-yl}-benzamide], the melting point was 138 °C (dec.). The Ki in series [1] is 2 nM.

`COCCN(C)Cc1ccc(C(=O)Nc2nc3c(OC)ccc(-c4cccs4)c3s2)cc1` [Example 240, 4-{[(2-Methoxy-ethyl)-methyl-amino]-methyl}-N-(4-methoxy-7-thiophen-2-yl-benzothiazol-2-yl)-benzamide] showed a melting point of 58 to 78 °C. The Ki in series [1] was 3.16 nM.

As to `COc1ccc(-c2ccc(C)s2)c2sc(NC(=O)N3CCC(O)CC3)nc12` [Example 266, 4-Hydroxy-piperidine-1-carboxylic acid [4-methoxy-7-(5-methyl-thiophen-2-yl)-benzothiazol-2-yl]-amide], the melting point is 197 to 204 °C (dec.).

As for `COc1ccc(-c2csc(C)n2)c2sc(NC(=O)N3CCN(C)CC3)nc12` [Example 267, 4-Methyl-piperazine-1-carboxylic acid [4-methoxy-7-(2-methyl-thiazol-4-yl)-benzothiazol-2-yl]-amide], the melting point is 179 to 181 °C.
